From PubChem BioAssay (NCI)
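Values below derive from 48-hour exposures of cells grown in 96-well plates, with endpoints linearly interpolated between the two concentrations bracketing the appropriate inhibition level. TGI marks complete inhibition of growth.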

Assays:
Experiment in all cases: NCI anticancer screen, dose series, 48 h
[1] = test system: UACC-257 melanoma
[2] = test system: UO-31 renal
[3] = test system: NCI-H522 lung
[4] = test system: 786-0 renal
[5] = test system: HL-60(TB) leukemia
[6] = test system: DU-145 prostate
[7] = test system: MOLT-4 leukemia
[8] = test system: T-47D breast
[9] = test system: HOP-92 NSCLC
[10] = test system: PC-3 prostate
[11] = test system: OVCAR-8 ovarian
[12] = test system: CAKI-1 renal
[13] = test system: SF-268 CNS
[14] = test system: EKVX NSCLC
[15] = test system: SF-295 CNS
[16] = test system: M14 melanoma
[17] = test system: SNB-19 CNS
[18] = test system: BT-549 breast
[19] = test system: HOP-62 NSCLC
[20] = test system: MDA-MB-435
[21] = test system: RXF 393 renal
[22] = test system: ACHN renal
[23] = test system: SK-MEL-2 melanoma
[24] = test system: U251 CNS
[25] = test system: SN12C renal
[26] = test system: OVCAR-3 ovarian
[27] = test system: MCF7 breast
[28] = test system: SF-539 CNS
[29] = test system: A498 renal
[30] = test system: COLO 205 colon
[31] = test system: SW-620 colon
[32] = test system: KM12 colon
[33] = test system: MDA-MB-231 breast
[34] = test system: NCI-H226 lung
[35] = test system: HCT-15 colon
[36] = test system: HCT-116 colon
[37] = test system: RPMI-8226 leukemia
[38] = test system: NCI/ADR-RES ovarian
[39] = test system: SNB-75 CNS
[40] = test system: UACC-62 melanoma
[41] = test system: IGROV1 ovarian
[42] = test system: HT29 colon
[43] = test system: OVCAR-4 ovarian
[44] = test system: LOX IMVI melanoma
[45] = test system: NCI-H460 lung
[46] = test system: MDA-N
[47] = test system: HCC-2998 colon
[48] = test system: SK-MEL-28 melanoma
[49] = test system: HS 578T breast
[50] = test system: K-562 leukemia
[51] = test system: SK-MEL-5 melanoma
[52] = test system: OVCAR-5 ovarian
[53] = test system: A549 NSCLC
[54] = test system: MALME-3M melanoma
[55] = test system: TK-10 renal
[56] = test system: SK-OV-3 ovarian
[57] = test system: CCRF-CEM leukemia
[58] = test system: SR leukemia
[59] = test system: NCI-H23 lung

CCCC[C@H]1C(=O)O[C@H](C)[C@H](NC(=O)c2cccc(NC=O)c2OC)C(=O)O[C@@H](C)[C@@H]1OC(=O)CC(C)C (tested in a mixture with another compound)
TGI [1]: 38.6 µM | TGI [2]: 41.4 µM | TGI [3]: 21 µM | TGI [4]: 29.3 µM | TGI [5]: 35.8 µM | TGI [6]: 55.7 µM | TGI [7]: 51.4 µM | TGI [8]: 44.5 µM | TGI [9]: 27.2 µM | TGI [10]: 32.6 µM | TGI [11]: 34.7 µM | TGI [12]: 31 µM | TGI [13]: 38.5 µM | TGI [14]: 31.3 µM | TGI [15]: 30.3 µM | TGI [16]: 46.6 µM | TGI [17]: 22.3 µM | TGI [18]: 40.1 µM | TGI [19]: 44.5 µM | TGI [20]: 25.6 µM | TGI [21]: 34.6 µM | TGI [22]: 41.4 µM | TGI [23]: 29 µM | TGI [24]: 18.9 µM | TGI [25]: 44.2 µM | TGI [26]: 27.7 µM | TGI [27]: 28.1 µM | TGI [28]: 51.9 µM | TGI [29]: 22.4 µM | TGI [30]: 27.1 µM | TGI [31]: 64.3 µM | TGI [32]: 46.9 µM | TGI [33]: 29.8 µM | TGI [34]: 35 µM | TGI [35]: 51.2 µM | TGI [36]: 28.4 µM | TGI [37]: 28.2 µM | TGI [38]: 61.1 µM | TGI [39]: 17.9 µM | TGI [40]: 18.5 µM | TGI [41]: 15 µM | TGI [42]: 33.1 µM | TGI [43]: 21.1 µM | TGI [44]: 23.2 µM | TGI [45]: 21.4 µM | TGI [46]: 50.3 µM | TGI [47]: 80.6 µM | TGI [48]: 52.8 µM | TGI [49]: 63.1 µM | TGI [50]: 58 µM | TGI [51]: 27.7 µM | TGI [52]: 51.6 µM | TGI [53]: 23 µM | TGI [54]: 46.5 µM | TGI [55]: 30.7 µM | TGI [56]: 30.1 µM | TGI [57]: 24.4 µM | TGI [58]: 50.5 µM | TGI [59]: 26.5 µM

NC(=O)CCSC(CC(=O)c1ccc(Cl)cc1)c1ccc(Cl)cc1 (stereo not drawn)
TGI [1]: > 100 µM | TGI [2]: > 100 µM | TGI [3]: 80.3 µM | TGI [4]: > 100 µM | TGI [5]: 25.6 µM | TGI [6]: 85.4 µM | TGI [7]: 35.8 µM | TGI [8]: 57.3 µM | TGI [9]: 45.5 µM | TGI [10]: > 100 µM | TGI [11]: 32.3 µM | TGI [12]: 42.6 µM | TGI [13]: 82.1 µM | TGI [14]: 93.7 µM | TGI [15]: 78.1 µM | TGI [16]: 83.3 µM | TGI [17]: > 100 µM | TGI [18]: 80 µM | TGI [19]: 93.1 µM | TGI [20]: 39.9 µM | TGI [21]: 32.6 µM | TGI [22]: > 100 µM | TGI [23]: 69.2 µM | TGI [24]: 34.5 µM | TGI [25]: 83.2 µM | TGI [26]: 40.6 µM | TGI [27]: 47.4 µM | TGI [28]: 39.4 µM | TGI [29]: 97.8 µM | TGI [30]: > 100 µM | TGI [31]: 12.2 µM | TGI [32]: 19.6 µM | TGI [33]: > 100 µM | TGI [34]: > 100 µM | TGI [35]: 31.5 µM | TGI [36]: 70.4 µM | TGI [37]: 5.71 µM | TGI [38]: 52.5 µM | TGI [39]: 90.7 µM | TGI [40]: 56 µM | TGI [41]: 34.8 µM | TGI [42]: > 100 µM | TGI [43]: 45.2 µM | TGI [44]: 25.5 µM | TGI [45]: > 100 µM | TGI [46]: 59.8 µM | TGI [47]: 32.7 µM | TGI [48]: > 100 µM | TGI [49]: > 100 µM | TGI [50]: > 100 µM | TGI [51]: 42.9 µM | TGI [52]: > 100 µM | TGI [53]: > 100 µM | TGI [54]: 66.8 µM | TGI [55]: > 100 µM | TGI [56]: > 100 µM | TGI [57]: 8.11 µM | TGI [58]: 22.9 µM | TGI [59]: > 100 µM
